Data from patent US20240025885A1, “TRIAZINE DERIVATIVES AND METHODS OF USE THEREOF” (priority 2022, published 2024).
Like-named read-outs stand apart in the source and are kept apart here.

What was measured:
in vivo [1] = assay: in vivo
Method: At Model Pharmacokinetic Properties Testing
(§1) Oral administration: the compound was administered with a volume ratio of Solutol:PEG400:Tween80:Saline=10:40:2:48 at a dose of 10 mg/kg. blood was taken continuously from the fundus venous plexus at 0.25 h, 0.5 h, 1 h, 2 h, 4 h, 8 h, 10 h, 12 h, and 24 h after administration in EP tubes containing EDTA, centrifuged at 8000 rpm/min for 5 min and then the upper layer of plasma was frozen at −80° C. and stored for LC-MS/MS analysis.
(§2) Intravenous administration: the compound was administered with a volume ratio of 10% DMSO/30% PEG400/60% water at a dose of 1 mg/kg). At 0.0833 h, 0.25 h, 0.5 h, 1 h, 2 h, 4 h, 8 h, 12 h and 24 h after drug administration, blood was serially collected from the fundus venous plexus in EP tubes containing EDTA, centrifuged at 8000 rpm/min for 5 min and then the upper layer of plasma was frozen at −80° C. and stored for LC-MS/MS analysis.
The pharmacokinetic parameters were calculated using WinNonlin software base on the blood concentration-time data obtained from the tests.

[2] = system: SARS-CoV-2 Omicron hCoV-19/USA/MD HP20874/2021 (B.1.1.529) strain; assay: In vitro antiviral activity against SARS-CoV-2 Omicron B.1.1.529 in Calu-3 cells (NP ELISA, percent virus reduction); assay type: cell-based; details: Severe acute respiratory syndrome coronavirus 2, Calu-3, 48 h
in vivo [3] = details: crab-eating monkey, plasma
Method: Crab-Eating Monkey Pharmacokinetic Properties Testing
as §1, with “of 2” for “of 10”, “mg/kg. The” for “mg/kg.”, “continuously” for “continuously from the fundus venous plexus”, “12 h” for “12 h,”, “after drug” for “after”, “5 min,” for “5 min”
as §2, with “with” for “with a volume ratio of”, “The blood was taken continuously at” for “At”, “administration” for “administration, blood was serially collected from the fundus venous plexus”
The pharmacokinetic parameters were calculated from the blood concentration-time data obtained from the tests using WinNonlin software.

[4] = system: hCoV-19/USA/Chicago IL/2022 (BA.5.2); assay: In vitro antiviral activity against SARS-CoV-2 BA.5.2 in Calu-3 cells (NP ELISA, percent virus reduction); assay type: cell-based; details: Severe acute respiratory syndrome coronavirus 2, Calu-3, 48 h
[5] = intravenous, 1 mg/kg, read-out: Intravenous injection AUClast
[6] = oral, 2 mg/kg, read-out: Oral AUClast

SMILES	AUC(0-t) (in vivo [1]; iv, 1 mg/kg)	AUC(0-t) (in vivo [1]; po, 10 mg/kg)	EC50 [2]	AUC(0-t) (in vivo [3]; [5])	AUC(0-t) (in vivo [3]; [6])	EC50 [4]
[2H]C([2H])([2H])n1cc2cc(Nc3nc(=O)n(Cc4ccon4)c(=O)n3Cc3cc(F)c(F)cc3F)c(Cl)cc2n1 [Compound 17]	25400 ng·h/mL	189000 ng·h/mL	30 nM	41000 ng·h/mL	64300 ng·h/mL	16 nM
Cn1cc2cc(Nc3nc(=O)n(Cc4nccs4)c(=O)n3Cc3cc(F)c(F)cc3F)c(Cl)cc2n1 [Compound 71]			34 nM			45 nM
[2H]c1c2cc(Nc3nc(=O)n(Cc4ccon4)c(=O)n3Cc3cc(F)c(F)cc3F)c(Cl)cc2nn1C [Compound 107]	21400 ng·h/mL	209000 ng·h/mL				
Cn1cc2cc(Nc3nc(=O)n(Cc4ncsn4)c(=O)n3Cc3cc(F)c(F)cc3F)c(Cl)cc2n1 [Compound 78]			67 nM			59 nM
Cn1cc2cc(Nc3nc(=O)n(Cc4cocn4)c(=O)n3Cc3cc(F)c(F)cc3F)c(Cl)cc2n1 [Compound 26]	7790 ng·h/mL	14100 ng·h/mL				
[2H]C([2H])([2H])n1cc2cc(Nc3nc(=O)n(Cc4ccon4)c(=O)n3Cc3cc(F)c(F)c(F)c3)c(Cl)cc2n1 [Compound 41]	26500 ng·h/mL	234000 ng·h/mL	31 nM	40600 ng·h/mL	63300 ng·h/mL	33 nM
O=c1nc(Nc2cc3cn(CCO)nc3cc2Cl)n(Cc2cc(F)c(F)cc2F)c(=O)n1Cc1cscn1 [Compound 97]	5670 ng·h/mL	7660 ng·h/mL				
[2H]C([2H])([2H])n1cc2cc(Nc3nc(=O)n(Cc4cscn4)c(=O)n3Cc3cc(F)c(F)cc3F)c(Cl)cc2n1 [Compound 16]	7040 ng·h/mL	139000 ng·h/mL	16 nM	3680 ng·h/mL	10100 ng·h/mL	22 nM
[2H]C([2H])([2H])n1cc2cc(Nc3nc(=O)n(Cc4cscn4)c(=O)n3Cc3cc(F)c(F)c(F)c3)c(Cl)cc2n1 [Compound 40]	9880 ng·h/mL	134000 ng·h/mL	23 nM	36500 ng·h/mL	62400 ng·h/mL	40 nM
O=c1nc(Nc2cc3cn(CCO)nc3cc2Cl)n(Cc2cc(F)c(F)cc2F)c(=O)n1Cc1ccon1 [Compound 70]			18 nM	4870 ng·h/mL	9880 ng·h/mL	21 nM
[2H]C([2H])([2H])n1cc2cc(Nc3nc(=O)n(Cc4cocn4)c(=O)n3Cc3cc(F)c(F)cc3F)c(Cl)cc2n1 [Compound 18]				4890 ng·h/mL	10400 ng·h/mL	
